Source: patent US20100028872A1, “Methods for the Detection of Cancer” (priority 2006, published 2010)

Experiments:
[1] = test system: SW48 colorectal tumor cell line; assay: 5Aza-dC dose optimisation: re-expression of silenced tumor suppressor genes on the expression array; format: cell-based; settings: 5 μM 5Aza-dC for at least two cell doubling times, with TSA (500 nM)
From the text: To determine the optimal 5Aza-dC dosage for robust detection of transcriptional reactivation on the microarray without excessive toxicity to the treated cells, the re-expression of 5 tumor suppressor genes, p16^INK4a, MLH1, MGMT, RARβ, and Timp-3, was examined at different doses of 5Aza-dC. The five TSG are well characterized as hypermethylated with associated silencing in the SW48 colorectal tumor cell line, which has a similar cell doubling time to the RCC lines (Wheeler et al. (1999) Proc. Natl. Acad. Sci., 96:10296-301; Esteller et al. (1999) Cancer Res., 59:793-97; Paz et al. (2003) Cancer Res., 63:1114-21; Herman et al. (1995) Cancer Res., 55:4525-30; Bachman et al. (1999) Cancer Res., 59:798-802). RNA was extracted from SW48 cell cultures after treatment with 1, 5, or 10 μM 5Aza-dC and TSA (500 nM). RT-PCR was then performed and the product labeled and hybridized to the expression array. […] The 5Aza-dC treatment was combined with TSA because there is good evidence that the processes of methylation and deacetylation interact to silence transcription, although TSA may have less synergistic effect at the relatively higher 5 μM 5Aza-dC dose employed than when combined with lower doses of 5Aza-dC (Cameron et al. (1999) Nat. Genet., 21:103-7; Wade et al. (2001) Oncogene, 20:3166-73). […]

[2] = test system: 786-0 clear cell renal tumor line; assay: Expression microarray of genes upregulated after 5Aza-dC and TSA treatment; format: cell-based, human; settings: 5 μM 5Aza-dC and 500 nM TSA, 14,802 gene microarray
Experimental: (§1) 5Aza-dC (Sigma, St. Louis, Mo.) was dissolved in phosphate buffered saline (PBS) as a 5 mM stock solution, and stored in aliquots at −80° C. TSA (Wako, Richmond, Va.) was dissolved in absolute ethanol as a 330 μM stock solution, and stored at −20° C. The 4 renal cell lines were split to low density and exposed to 5Aza-dC at a final concentration of 5 μM, again 24 hours after the beginning of treatment and, if necessary, further treatment until the cells had undergone at least 2 doublings. The cells were also treated with TSA at a final concentration of 500 nM during the 24 hours prior to harvest for RNA extraction. Untreated (mock) cells were cultured over an identical period of time with an equivalent volume of PBS and, for the final 24 hours, with an equivalent volume of EtOH.
(§2) Total RNA was isolated from drug-treated and untreated cultured cells using TRIZOL reagent (Invitrogen, Carlsbad, Calif.) and purified with the RNAeasy Mini Kit (Quiagen, Valencia, Calif.) combined with DNAase treatment. The RNA quality was confirmed by the ratio of 28S and 18S ribosomal RNA after agarose gel electrophoresis. Twenty μg of total RNA was reverse transcribed using oligo (dT)24 primer and Superscript II reverse transcriptase (Invitrogen, Carlsbad, Calif.) for 1.5 hours at 42° C.
(§3) For each cell line, both treated and untreated cDNA was labeled with Cy3 or Cy5 (Amersham Biosciences, Piscataway, N.J.) and then hybridized to separate human 15k oligoarrays (MWG-Biotech Inc, High Point, N.C.) according to the manufacturer's recommendation for 18 hours at 42° C. The microarrays were processed and spotted in the DNA Microarray Facility at FCCC. The Gene list, Gene ID and Template files can be viewed at research.fccc.edu/facilities/microarray. In addition, microarray hybridization was performed with the opposite labels (dye flip) from each cell line. The hybridized slides were scanned using a GMS 428 Scanner (Affymetrix, Santa Clara, Calif.) to generate high-resolution images for both Cy3 and Cy5 channels. Image analysis was performed using the ImaGene software (BioDiscovery, Inc, El Segundo, Calif.).
(§4) The genes corresponding to each oligonucleotide spotted on the array were identified using an optimized segmentation algorithm. […] Data were analyzed using the GeneSight software (BioDiscovery, Inc, El Segundo, Calif.) which includes background subtraction, data normalization (Lowess transformation), calculation of ratios, and statistical analysis of replicate spots and slides.
(§5) Up-regulation of the 14,802 gene microarray was analyzed in 4 RCC lines treated with 5 μM of 5Aza-dC and 500 nM of TSA. […] The promoter region of each gene was also analyzed for the presence of a CpG island with the characteristics described by Takai and Jones (Takai et al. (2002) Proc. Natl. Acad. Sci., 99:3740-5). […]

[3] = test system: HRC59 papillary renal tumor cell line; assay: as above; format: cell-based, human; settings: 5 μM 5Aza-dC and 500 nM TSA, 14,802 gene microarray
Experimental: as §1, §2, §3, §4, §5

[4] = test system: HRC51 clear cell renal tumor cell line; assay: as above; format: cell-based, human; settings: 5 μM 5Aza-dC and 500 nM TSA, 14,802 gene microarray
Experimental: as §1, §2, §3, §4, §5

[5] = test system: ACHN papillary renal tumor cell line; assay: as above; format: cell-based, human; settings: 5 μM 5Aza-dC and 500 nM TSA, 14,802 gene microarray
Experimental: as §1, §2, §3, §4, §5

Nc1ncn([C@H]2C[C@H](O)[C@@H](CO)O2)c(=O)n1 [5Aza-dC, 5Aza-2deoxycytidine]
toxicity as assessed by comparison of cell morphology and cell death between control and treated cells [1]: minimal toxicity | re-expression of 5 tumor suppressor genes (p16INK4a, MLH1, MGMT, RARβ, Timp-3) ([1]; SW48 cells): re-expression of the 5 TSG | genes upregulated at least 3-fold compared to the untreated cells [2]: 170 genes | genes upregulated at least 3-fold compared to the untreated cells [3]: 178 genes | genes upregulated at least 3-fold compared to the untreated cells [4]: 112 genes | genes upregulated at least 3-fold compared to the untreated cells [5]: 111 genes
